Results from patent publication US20030040105A1, “Microfluidic micromixer” (priority 1999, published 2003).

Target: T1, streptavidin coated bead bearing fluorescein biotin (Streptomyces avidinii, UniProt P22629)
T1 construct: purchased Spherotech Inc., Libertyville, Ill
Assay: unquenching of fluorescein biotin streptavidin beads by native biotin, flow cytometry
Type: binding
Conditions: streptavidin beads with quenched fluorescein biotin, typical
Description: Data are plotted as mean channel fluorescence (MCF) versus time for several concentrations of biotin. The binding of fluorescein biotin to streptavidin-coated beads shown in FIG. 12A is characterized by the quenching of fluorescence of particles bound relative to free fluorescein biotin. The quenching is relieved when free biotin is added. The base line fluorescence indicated by the constant signal on the right signifies the “ostrich quenched” fluorescein biotin beads. Typically, this type of quenching, “ostrich quenching,” occurs when the fluorescein moiety associates with the streptavidin-binding pocket adjacent to the biotin-moiety bearing site FIG. 12A. […] The subsequent increase in fluorescence signal on right is caused by homogeneously mixing native biotin with the microspheres causing the unquenching of FITC-biotin in the streptavidin receptor pocket on the bead surface.
A 200 μL volume suspension of streptavidin coated beads (3.7×10^7 beads/mL) was diluted to 4 mL in TRIS buffer, (100 mM Tris HCl, 150 mM NaCl, 0.1% BSA, 0.02% sodium azide, pH 7.5). Subsequently, 1.0 μL of 8.7×10^−6 M fluorescein biotin solution was added to the beads. The sample was continuously agitated for 20 minutes, then centrifuged and resuspended in 6.0 mL of buffer. The final bead suspension comprised of ˜1.1 million beads/mL with a million fluorescein biotin molecules per bead. […]

T1 sequence (P22629 25-183): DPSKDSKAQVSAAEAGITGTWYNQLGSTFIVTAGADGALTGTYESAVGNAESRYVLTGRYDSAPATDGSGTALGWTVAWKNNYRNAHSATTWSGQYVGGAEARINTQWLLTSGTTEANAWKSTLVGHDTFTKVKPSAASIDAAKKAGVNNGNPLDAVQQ

`O=C(O)CCCC[C@@H]1SC[C@@H]2NC(=O)N[C@@H]21` [native biotin, Biotin] was tested, and the “increase in fluorescence intensity after mixing with excess native biotin” value was “eight-fold increase”.
